Assay results taken from article PMC7281206, “Cysteine Cathepsins Inhibition Affects Their Expression and Human Renal Cancer Cell Phenotype” (Cancers, 2020).
*: point of attachment. CH2F = FC*

Assays:
Type in all cases: cell-based, human
[1] = test system: 769-P cells (proteolytic activity); test: Cell proteolytic activity towards Ac-PLVQ-AMC, 769-P; conditions: 30 min peptide, then 10 min Ac-PLVQ-AMC; fluorescence microscopy and fluorimetric analysis
Experimental: (§1) To evaluate the inhibitory properties of the peptides directly on the human renal cancer cells, we firstly assessed the impact of Ac-PLVE-FMK and Ac-VLPE-FMK on the cell viability of 769-P and A498 cells to determine the working concentrations for further experiments. […] Further experiments were performed using a concentration of 20 μM. To understand if the peptides could affect the activity of caspase proteases, we tested their effect on cell viability in combination with the chemotherapeutic paclitaxel (PXT) in both the cell lines. […] Next, we evaluated the effect of the peptides on renal cancer cell proteolytic activity against the fluorogenic probe Ac-PLVQ-AMC. In this case, 769-p and A498 cells were treated for 30 min with Ac-PLVE-FMK or Ac-VLPE-FMK and were then exposed for 10 min to the substrate Ac-PLVQ-AMC prior fluorescence microscopy analysis (Figure 3c,d).
Figure 3 The effect of the peptide inhibitors on human 769-P and A498 renal cancer cell proliferation and proteolytic activity. […] Cell proliferation was measured after 24, 48, and 72 h via MTT (3-(4,5-dimethylthiazol-2-yl)-2,5-diphenyltetrazolium bromide) assay. […] (c) Fluorescence microscopy evaluation and quantification of the cell proteolytic activity in 769-P and (d) A498 cells towards the fluorogenic substrate Ac-PLVQ-AMC in the absence or presence of Ac-PLVE-FMK and Ac-VLPE-FMK. […]

LAMP-1 in A498 cells = test: LAMP-1 protein expression (western blot, confocal microscopy), A498; conditions: 20 μM
Experimental: Figure 7 Effect of the peptides on LAMP-1 protein expression: (a) Western blotting analysis of LAMP-1 after treatment with PLVE and VLPE (20 μM) for 24, 48, and 72 h in 769-P cells. (b) Confocal microscopy evaluation of LAMP-1 expression after 48 and 72 h of treatment with PLVE and VLPE (20 μM) in 769-P cells. (c) Western blotting analysis of LAMP-1 after treatment with PLVE and VLPE (20 μM) for 24, 48, and 72 h in A498 cells. (d) Confocal microscopy evaluation of LAMP-1 expression after 48 and 72 h of treatment with PLVE and VLPE (20 μM) in A498 cells. Data are represented as mean ± SD of at least three replicates. Significance was calculated through one-way ANOVA followed by Dunnet’s test. * = p < 0.05, ** = p < 0.01, *** = p < 0.001. Cells were seeded in RPMI containing 10% FBS and cultured for 24 h. Next, 30 µM of inhibitors were added to the culture medium and incubated for 24, 48, and 72 h. Control cells were treated with 0.01% DMSO. At all time points the samples were lysed in 50 mM Tri-HCl (pH 8.0), 100 mM NaCl, 0.5% NP-40, 1% Triton X-100, 1× protease inhibitor cocktail (ThermoFisher, Waltham, MA, USA). The 50 µg of protein lysates were separated by electrophoresis on a 12% SDS-PAGE gel and transferred to the PFDF membranes. The expression of cysteine Cts, LAMP-1, E-cadherin, and SNAIL1 were identified by a reaction with specific primary antibodies (CtsB-Ab190077, Abcam, UK; CtsL-Ab95154, Abcam, UK; CtsW Ab191083; LAMP-1- Ab24170, Abcam, UK; SNAIL1 Ab216347, Abcam, UK and e-cadherin-612131, BD Sciences Franklin Lakes, NJ, USA) which were resuspended in 5% non-fat milk in PBST (all Cts 1:3000, LAMP-1, SNAIL1 and E-cadherin 1:1000) and incubated O/N. The next day, the membranes were washed three times with PBST and incubated for 1 h with secondary antibodies (P-GAR Iss (Goat pAb to rabbit IgG (HRP), Abcam, UK or Rabbit Ab to mouse, Abcam, UK; both 1:5000) in 5% non-fat milk in PBST. After an additional wash (three times with PBS), reactive bands were detected by chemiluminescence (Bio-Rad, Irvine, CA, USA). As a loading control, the membranes were incubated with a polyclonal anti-tubulin antibody (1:5000; Ab52866, Abcam, UK) identically. The cells were treated for 48 and 72 h, then were fixed in 4% PFA/PBS for 15 min and permeabilized in 0.25% Triton®X-100 for 10 min. After blocking the non-specific sites in 2% BSA/PBS-T, the immunofluorescence was performed overnight with primary antibody anti-LAMP-1 (1:100, Abcam, Eugene, OR, USA) incubation, followed by incubation with the appropriate fluorophore-labeled secondary antibody Donkey anti-Rabbit IgG (H+L) ReadyProbes™, Alexa Fluor 488 (1:500; ThermoFisher, USA). […]

769-P cells = test: Cell viability with paclitaxel (MTT), 769-P; conditions: peptide 20 µM combined with PXT 100 nM; versus PXT alone
Experimental: as §1
The cell number was evaluated by counting viable cells using the MTT (3-(4,5-dimethylthiazol-2-yl)-2,5-diphenyltetrazolium bromide) colorimetric assay. A total of 2 × 10^4 cells/well were seeded on independent 96-well plates for each time point (0, 24, 48, and 72 h), with five replicates and treated with two inhibitors (2.5–250 μM). Then, 10 µL of the MTT reagent was added to each well, and cells were incubated for another 5 h. Next, the absorbance value was measured using a CLARIOstar® Plus plate reader (BMG Labtech, Ortenberg, Germany) at 490 nm. Triplicate wells were assayed, and S.D.s were determined.
Figure S3. Combined effect of PXT and the inhibitors on 769‐P proliferation: 769‐P cells were treated with 100 nM of PXT alone or in combination with 20 μM of Ac‐PLVE and Ac‐VLPE and cell proliferation was measured after 24, 48, and 72 h via MTT assay. Data represent the mean (± S.D.) of three independent experiments, each performed in triplicate.
Figure S4. Spheroids size and circularity: (a,b) size and circularity of 769‐P and (c,d) A498 cells upon treatment with Ac‐PLVE‐FMK and Ac‐VLPE‐FMK. Data represent the mean (± S.D.) of three independent experiments, each performed in triplicate. […]

Ac-PLVE-CH2F [Ac-PLVE-FMK] was tested, and the “Inhibition of probe degradation (cell proteolytic activity)” value [1] was “significantly inhibited the probe degradation”, the LAMP-1 protein expression (LAMP-1 in A498 cells; 72 h) was “substantial recovery at 72 h, reaching values slightly higher than CTRL levels” and the LAMP-1 protein expression (LAMP-1 in A498 cells; first 48 h) was “significantly affected during the first 48 h”. For the same substance, the “Effect on cell viability in combination with PXT” value (769-P cells) was “no significant differences were observed”.

In the case of Ac-VLPE-CH2F [Ac-VLPE-FMK], the “Inhibition of probe degradation (cell proteolytic activity)” value [1] is reported as “significantly inhibited the probe degradation”, the LAMP-1 protein expression (LAMP-1 in A498 cells; 72 h) is reported as “substantial recovery at 72 h, reaching values slightly higher than CTRL levels” and the LAMP-1 protein expression (LAMP-1 in A498 cells; first 48 h) is reported as “significantly affected during the first 48 h”. The “Effect on cell viability in combination with PXT” value (769-P cells) was “no significant differences were observed”.
